Test results as given in ChEMBL document CHEMBL1201862, “PubChem BioAssay data set” (2004).
The source made the active and inactive calls.

What was measured:
[1] = molecular target: T1, Tyrosine-protein phosphatase non-receptor type 7 (Homo sapiens, UniProt P35236); assay type: functional
T1 sequence (P35236 whole entry): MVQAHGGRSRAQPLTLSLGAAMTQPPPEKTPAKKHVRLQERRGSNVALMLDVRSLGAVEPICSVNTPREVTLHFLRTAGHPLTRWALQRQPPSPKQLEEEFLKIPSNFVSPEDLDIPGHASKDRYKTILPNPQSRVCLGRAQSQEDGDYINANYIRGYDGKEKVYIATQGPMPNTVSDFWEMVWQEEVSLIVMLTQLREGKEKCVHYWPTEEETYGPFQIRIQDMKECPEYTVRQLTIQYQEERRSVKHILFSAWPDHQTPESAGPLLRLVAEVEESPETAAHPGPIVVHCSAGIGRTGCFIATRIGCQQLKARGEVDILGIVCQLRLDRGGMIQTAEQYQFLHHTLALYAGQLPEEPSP

[2] = molecular target: Dual specificity protein phosphatase 3 (Homo sapiens, UniProt P51452); test: VHR1 inhibitor Ki determination, SAR follow-up, biochemical, colorimetric (AID 2004)
Chain of Dual specificity protein phosphatase 3 (P51452 whole entry): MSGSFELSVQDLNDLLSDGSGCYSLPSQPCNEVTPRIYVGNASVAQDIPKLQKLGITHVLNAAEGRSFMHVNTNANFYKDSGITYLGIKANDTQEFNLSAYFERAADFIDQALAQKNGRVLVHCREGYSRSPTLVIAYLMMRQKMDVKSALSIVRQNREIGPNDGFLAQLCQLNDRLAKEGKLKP

[3] = molecular target: Glyceraldehyde-3-phosphate dehydrogenase (Homo sapiens, UniProt P04406)
Chain of Glyceraldehyde-3-phosphate dehydrogenase (P04406 whole entry): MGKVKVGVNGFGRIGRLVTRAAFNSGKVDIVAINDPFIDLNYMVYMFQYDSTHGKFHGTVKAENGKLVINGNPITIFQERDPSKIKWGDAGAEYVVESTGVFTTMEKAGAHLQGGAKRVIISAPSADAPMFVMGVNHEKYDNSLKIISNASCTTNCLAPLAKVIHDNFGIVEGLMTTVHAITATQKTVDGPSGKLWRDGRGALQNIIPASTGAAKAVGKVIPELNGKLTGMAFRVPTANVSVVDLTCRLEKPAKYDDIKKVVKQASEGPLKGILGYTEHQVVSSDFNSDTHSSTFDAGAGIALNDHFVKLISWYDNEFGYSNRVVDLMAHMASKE

[4] = molecular target: Heat shock cognate 71 kDa protein (Homo sapiens, UniProt P11142); test: In Vitro Hsc70 Dose Response Fluorescence Polarization Assay. [Related pubchem assays: 1072 ]
Chain of Heat shock cognate 71 kDa protein (P11142 whole entry): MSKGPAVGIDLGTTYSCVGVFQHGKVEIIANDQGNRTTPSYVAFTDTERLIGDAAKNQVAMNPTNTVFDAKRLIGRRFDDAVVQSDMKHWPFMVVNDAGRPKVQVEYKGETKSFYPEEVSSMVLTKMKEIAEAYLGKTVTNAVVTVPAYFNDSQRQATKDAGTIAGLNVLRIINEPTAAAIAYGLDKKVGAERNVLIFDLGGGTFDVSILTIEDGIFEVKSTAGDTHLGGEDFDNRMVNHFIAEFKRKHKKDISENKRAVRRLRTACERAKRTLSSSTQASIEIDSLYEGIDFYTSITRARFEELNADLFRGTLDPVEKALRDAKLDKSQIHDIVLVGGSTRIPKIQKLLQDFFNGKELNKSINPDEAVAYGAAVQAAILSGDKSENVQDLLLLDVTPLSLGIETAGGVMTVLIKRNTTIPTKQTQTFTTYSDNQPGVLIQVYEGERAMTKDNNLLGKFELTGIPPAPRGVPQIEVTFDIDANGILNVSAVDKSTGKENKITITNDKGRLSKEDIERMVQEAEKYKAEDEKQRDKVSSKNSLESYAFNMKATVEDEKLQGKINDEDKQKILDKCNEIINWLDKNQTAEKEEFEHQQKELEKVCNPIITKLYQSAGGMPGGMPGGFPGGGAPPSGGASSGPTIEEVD

Bcl-2-like protein 10 = molecular target: T2, Bcl-2-like protein 10 (Homo sapiens, UniProt Q9HD36); test: Biochemical TR3 FP assay of Bcl-B inhibitor potency, EC50 (AID 1243); assay type: functional
T2 sequence (Q9HD36 whole entry): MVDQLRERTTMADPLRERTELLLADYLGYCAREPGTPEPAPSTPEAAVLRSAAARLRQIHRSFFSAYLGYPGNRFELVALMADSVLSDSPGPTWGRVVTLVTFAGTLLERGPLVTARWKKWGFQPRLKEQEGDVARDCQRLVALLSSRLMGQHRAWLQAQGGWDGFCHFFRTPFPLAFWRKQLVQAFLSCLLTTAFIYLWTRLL

[5] = molecular target: Heat shock 70 kDa protein 1A (Homo sapiens, UniProt P0DMV8); test: Hsp70 inhibitors, SAR follow-up, biochemical, fluorescence polarization (AID 1072)
Chain of Heat shock 70 kDa protein 1A (P0DMV8 whole entry): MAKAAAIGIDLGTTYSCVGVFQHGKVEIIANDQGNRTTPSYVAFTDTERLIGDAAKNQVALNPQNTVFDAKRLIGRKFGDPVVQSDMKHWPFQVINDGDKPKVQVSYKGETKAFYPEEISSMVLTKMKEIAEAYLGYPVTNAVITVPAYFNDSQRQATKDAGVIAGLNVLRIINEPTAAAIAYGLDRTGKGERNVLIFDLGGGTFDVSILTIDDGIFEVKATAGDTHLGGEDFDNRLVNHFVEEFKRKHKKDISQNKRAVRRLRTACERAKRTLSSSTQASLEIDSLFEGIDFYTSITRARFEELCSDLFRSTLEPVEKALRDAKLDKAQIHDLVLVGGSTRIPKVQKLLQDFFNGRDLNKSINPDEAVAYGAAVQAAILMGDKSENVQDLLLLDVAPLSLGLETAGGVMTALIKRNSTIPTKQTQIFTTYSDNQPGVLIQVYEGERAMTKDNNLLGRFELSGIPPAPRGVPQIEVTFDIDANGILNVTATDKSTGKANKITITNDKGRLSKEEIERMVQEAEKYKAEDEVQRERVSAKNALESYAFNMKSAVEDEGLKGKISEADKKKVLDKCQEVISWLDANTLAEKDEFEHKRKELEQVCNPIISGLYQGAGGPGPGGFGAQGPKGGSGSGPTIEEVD

[6] = molecular target: T3, Dual specificity protein phosphatase 6 (Rattus norvegicus, UniProt Q64346)
T3 sequence (Q64346 whole entry): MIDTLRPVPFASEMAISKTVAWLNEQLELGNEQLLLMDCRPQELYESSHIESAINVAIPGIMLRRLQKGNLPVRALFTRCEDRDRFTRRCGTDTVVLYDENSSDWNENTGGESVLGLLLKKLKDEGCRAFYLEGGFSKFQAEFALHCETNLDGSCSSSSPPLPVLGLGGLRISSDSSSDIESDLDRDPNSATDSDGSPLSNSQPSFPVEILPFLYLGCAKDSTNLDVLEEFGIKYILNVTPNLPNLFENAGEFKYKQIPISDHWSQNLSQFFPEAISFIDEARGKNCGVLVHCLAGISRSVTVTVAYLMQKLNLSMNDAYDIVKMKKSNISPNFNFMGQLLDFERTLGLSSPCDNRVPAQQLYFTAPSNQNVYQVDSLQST

Cysteine protease ATG4B = molecular target: T4, Cysteine protease ATG4B (Homo sapiens, UniProt Q9Y4P1); assay type: functional;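 further: Fluorescence-based dose-response confirmation assay measuring inhibition of ATG4B activity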
T4 sequence (Q9Y4P1 whole entry): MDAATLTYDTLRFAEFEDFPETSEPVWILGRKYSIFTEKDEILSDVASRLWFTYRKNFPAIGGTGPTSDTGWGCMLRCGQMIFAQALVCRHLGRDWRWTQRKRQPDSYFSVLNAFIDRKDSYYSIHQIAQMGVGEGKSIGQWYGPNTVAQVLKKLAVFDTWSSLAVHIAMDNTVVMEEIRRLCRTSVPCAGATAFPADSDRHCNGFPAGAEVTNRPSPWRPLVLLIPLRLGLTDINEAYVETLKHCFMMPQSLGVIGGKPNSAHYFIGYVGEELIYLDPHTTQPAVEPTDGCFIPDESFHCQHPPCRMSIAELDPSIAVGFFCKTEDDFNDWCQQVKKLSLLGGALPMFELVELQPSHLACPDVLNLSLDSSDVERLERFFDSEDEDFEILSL

Phospholipase A2 = Phospholipase A2 (Homo sapiens, UniProt P04054); assay type: functional;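 further: confirmatory dose-response counterscreen on phospholipase A2, testing hits that came from an ultra-high-throughput screen for ATG4B inhibitors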
Chain of Phospholipase A2 (P04054 whole entry): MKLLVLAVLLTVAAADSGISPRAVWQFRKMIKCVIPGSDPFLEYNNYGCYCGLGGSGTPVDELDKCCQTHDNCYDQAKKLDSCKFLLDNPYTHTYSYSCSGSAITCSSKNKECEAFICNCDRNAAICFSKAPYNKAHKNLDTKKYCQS

[7] = molecular target: T3, Dual specificity protein phosphatase 6; assay type: functional
[8] = molecular target: T5, Endoribonuclease toxin MazF (Escherichia coli K-12, UniProt P0AE70); test: MazF toxin RNase activators, dose response, biochemical, fluorescence, single-stranded RNA substrate, uHTS hits (AID 588481); assay type: functional
T5 sequence (P0AE70 whole entry): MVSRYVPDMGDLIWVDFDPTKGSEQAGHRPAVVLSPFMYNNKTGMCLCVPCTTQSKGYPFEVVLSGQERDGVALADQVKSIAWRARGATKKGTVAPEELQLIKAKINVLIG

Keap1/Nrf2 = Keap1/Nrf2 (Homo sapiens, UniProt Q14145); test: Keap1-Nrf2 protein-protein interaction inhibitors, dose response, biochemical, fluorescence polarization, cherry-picked samples (AID 588683)
[9] = molecular target: T5, Endoribonuclease toxin MazF; test: fluorescent RNA oligo signal without MazF, dose response, counter-screen for MazEF activator project, biochemical, fluorescence, single-stranded RNase substrate (AID 588502); assay type: functional
[10] = molecular target: T6, Eukaryotic translation initiation factor 4H (Homo sapiens, UniProt Q15056); test: human eIF4H binding inhibitors, primary screen, translation initiation inhibitor project, biochemical, uHTS, fluorescence polarization (AID 2012)
[11] = molecular target: T7, Polyadenylate-binding protein 1 (Homo sapiens, UniProt P11940); test: PABP poly(A) RNA binding inhibitors, primary screen, biochemical, fluorescence polarization, uHTS (AID 2014)
T7 sequence (P11940 whole entry): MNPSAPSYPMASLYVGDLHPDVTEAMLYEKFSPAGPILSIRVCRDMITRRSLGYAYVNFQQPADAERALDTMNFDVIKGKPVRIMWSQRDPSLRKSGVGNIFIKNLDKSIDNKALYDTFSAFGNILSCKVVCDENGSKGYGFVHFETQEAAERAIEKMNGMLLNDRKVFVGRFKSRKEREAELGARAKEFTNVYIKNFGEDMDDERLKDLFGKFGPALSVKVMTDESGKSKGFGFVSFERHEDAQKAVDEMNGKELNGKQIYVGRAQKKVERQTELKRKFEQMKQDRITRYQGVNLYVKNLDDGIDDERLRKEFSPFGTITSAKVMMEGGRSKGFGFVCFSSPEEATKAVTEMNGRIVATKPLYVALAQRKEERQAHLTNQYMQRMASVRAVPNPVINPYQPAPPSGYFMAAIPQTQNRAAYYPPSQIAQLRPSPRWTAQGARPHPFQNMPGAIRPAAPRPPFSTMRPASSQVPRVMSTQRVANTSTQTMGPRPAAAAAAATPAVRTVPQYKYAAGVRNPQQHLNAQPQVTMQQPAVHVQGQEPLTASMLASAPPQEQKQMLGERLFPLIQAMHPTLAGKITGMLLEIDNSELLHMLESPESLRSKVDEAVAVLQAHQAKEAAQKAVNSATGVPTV

[12] = molecular target: T6, Eukaryotic translation initiation factor 4H; test: eIF4H inhibition in translation initiation, SAR follow-up (AID 435011); assay type: functional
[13] = molecular target: T7, Polyadenylate-binding protein 1; test: PABP inhibition in translation initiation, SAR follow-up (AID 435018); assay type: functional
[14] = molecular target: T8, Apoptotic protease-activating factor 1 (Homo sapiens, UniProt O14727); test: activation of Apaf-1 mediated apoptosis – fluorescent, uHTS hits, dose response (AID 588554); assay type: functional
T8 sequence (O14727 whole entry): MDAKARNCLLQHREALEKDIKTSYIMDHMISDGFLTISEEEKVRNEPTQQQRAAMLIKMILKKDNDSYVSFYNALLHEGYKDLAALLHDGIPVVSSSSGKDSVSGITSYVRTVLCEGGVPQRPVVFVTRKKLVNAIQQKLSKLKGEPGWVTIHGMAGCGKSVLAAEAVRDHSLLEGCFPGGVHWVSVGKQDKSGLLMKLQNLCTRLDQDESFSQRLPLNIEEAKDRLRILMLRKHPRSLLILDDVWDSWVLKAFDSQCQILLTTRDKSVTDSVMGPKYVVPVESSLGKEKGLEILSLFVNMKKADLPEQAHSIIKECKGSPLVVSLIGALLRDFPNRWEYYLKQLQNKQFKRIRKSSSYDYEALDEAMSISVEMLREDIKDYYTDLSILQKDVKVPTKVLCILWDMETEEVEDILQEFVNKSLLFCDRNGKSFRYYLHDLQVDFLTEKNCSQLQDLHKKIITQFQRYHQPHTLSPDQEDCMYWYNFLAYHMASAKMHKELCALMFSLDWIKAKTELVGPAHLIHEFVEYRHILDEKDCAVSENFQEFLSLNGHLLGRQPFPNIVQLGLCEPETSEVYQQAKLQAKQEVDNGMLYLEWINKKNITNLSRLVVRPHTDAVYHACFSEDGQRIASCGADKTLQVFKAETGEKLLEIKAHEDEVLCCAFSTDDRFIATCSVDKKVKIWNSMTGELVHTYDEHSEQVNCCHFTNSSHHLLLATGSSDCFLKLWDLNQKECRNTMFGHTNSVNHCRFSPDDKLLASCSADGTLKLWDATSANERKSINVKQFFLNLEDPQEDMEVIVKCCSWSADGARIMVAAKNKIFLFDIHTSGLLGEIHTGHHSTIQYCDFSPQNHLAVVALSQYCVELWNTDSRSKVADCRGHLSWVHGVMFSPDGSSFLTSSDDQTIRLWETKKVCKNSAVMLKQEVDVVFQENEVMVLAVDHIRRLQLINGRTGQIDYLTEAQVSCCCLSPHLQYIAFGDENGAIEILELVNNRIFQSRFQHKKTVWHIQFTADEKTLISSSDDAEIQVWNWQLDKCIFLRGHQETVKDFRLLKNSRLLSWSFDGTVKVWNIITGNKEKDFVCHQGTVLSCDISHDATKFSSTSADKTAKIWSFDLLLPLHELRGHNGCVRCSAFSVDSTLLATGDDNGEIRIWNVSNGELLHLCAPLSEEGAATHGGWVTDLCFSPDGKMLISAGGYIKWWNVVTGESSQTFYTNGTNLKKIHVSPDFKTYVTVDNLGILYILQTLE

[15] = molecular target: T9, Small ubiquitin-related modifier 1 (Homo sapiens, UniProt P63165); test: inhibitors of SUMO1 peptide binding, dose response, biochemical, fluorescence polarization, uHTS hits (AID 624382); assay type: functional; settings: read-out: IC50_Mean
T9 sequence (P63165 whole entry): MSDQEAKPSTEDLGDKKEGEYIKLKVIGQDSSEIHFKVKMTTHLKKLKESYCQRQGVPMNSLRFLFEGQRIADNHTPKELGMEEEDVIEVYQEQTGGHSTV

[16] = molecular target: T9, Small ubiquitin-related modifier 1; test: inhibitors of SUMO1 partner interactions, dose response, biochemical, FRET (AID 624383); assay type: functional; settings: read-out: IC50_Mean
[17] = molecular target: UDP-galactopyranose mutase (Mycobacterium tuberculosis, UniProt P9WIQ1); test: Inhibitors of Mycobacterium tuberculosis UDP-galactopyranose mutase (UGM) enzyme Measured in Biochemical System Using Plate Reader - 2105-02_Inhibitor_Dose_CherryPick_Activity. [Related pubchem assays (depositor defined):AID504439]
Chain of UDP-galactopyranose mutase (P9WIQ1 whole entry): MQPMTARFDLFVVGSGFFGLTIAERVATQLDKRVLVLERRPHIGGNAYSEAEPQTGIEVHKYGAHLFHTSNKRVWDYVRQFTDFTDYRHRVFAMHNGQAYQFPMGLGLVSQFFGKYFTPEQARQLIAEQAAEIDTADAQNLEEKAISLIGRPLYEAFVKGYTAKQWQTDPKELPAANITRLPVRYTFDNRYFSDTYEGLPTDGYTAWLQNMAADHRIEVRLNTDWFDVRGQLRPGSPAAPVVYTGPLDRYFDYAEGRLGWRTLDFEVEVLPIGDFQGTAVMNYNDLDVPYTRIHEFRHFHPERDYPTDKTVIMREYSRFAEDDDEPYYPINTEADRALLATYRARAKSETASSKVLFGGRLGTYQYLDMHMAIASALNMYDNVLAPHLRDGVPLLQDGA

Candida albicans = test: growth inhibition of resistant C. albicans, dose response, CaCi-8, fluconazole, Alamar Blue, dry powder (AID 488807); assay type: functional, organism-based
[18] = inhibitors of firefly luciferase expression or activity, dose response, H4 neuroglioma cells, luminescence (AID 1990); assay type: functional, cell-based
[19] = A Cell Based Secondary Assay To Explore Cytotoxicity of Compounds that Sensitize Mycobacterium Tuberculosis to Beta-Lactam Antibiotics.; assay type: functional
[20] = Luminescence Cell-Based Dose Response HTS to Identify Inhibitors of 5'UTR Stem-Loop Driven Prion Protein mRNA Translation in H4 Neuroglioblastoma Cells. [Related pubchem assays: 1827 (Project Summary), 1813 (Primary HTS)]; assay type: functional
[21] = inhibitors of SNCA 5'UTR-driven reporter translation, confirmation, H4 neuroglioma cells, luminescence (AID 1988); assay type: functional, cell-based
Estrogen receptor = molecular target: T10, Estrogen receptor (Homo sapiens, UniProt P03372);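 further: potency for inhibiting coactivator peptide recruitment to the receptor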
T10 sequence (P03372 whole entry): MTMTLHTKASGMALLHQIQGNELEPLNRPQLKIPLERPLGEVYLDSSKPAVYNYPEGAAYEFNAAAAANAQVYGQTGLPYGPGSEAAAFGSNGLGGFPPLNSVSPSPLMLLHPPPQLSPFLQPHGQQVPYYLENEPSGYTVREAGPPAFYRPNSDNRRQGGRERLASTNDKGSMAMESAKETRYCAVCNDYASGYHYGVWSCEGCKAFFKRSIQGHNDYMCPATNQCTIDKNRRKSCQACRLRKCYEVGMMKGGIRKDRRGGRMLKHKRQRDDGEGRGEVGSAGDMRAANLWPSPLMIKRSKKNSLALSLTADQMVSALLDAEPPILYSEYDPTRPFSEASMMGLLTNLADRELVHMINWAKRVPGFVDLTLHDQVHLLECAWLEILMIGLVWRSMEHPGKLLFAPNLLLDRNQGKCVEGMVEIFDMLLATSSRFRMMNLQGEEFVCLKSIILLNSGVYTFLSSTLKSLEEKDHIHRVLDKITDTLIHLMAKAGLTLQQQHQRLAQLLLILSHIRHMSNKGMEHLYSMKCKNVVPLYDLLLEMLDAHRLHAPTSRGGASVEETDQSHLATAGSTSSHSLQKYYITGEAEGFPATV

[22] = Luminescence Cell-Based Dose Retest to Confirm Inhibitors of Cancer Stem Cells. [Related pubchem assays (depositor defined):AID2717, AID2721]; assay type: functional; settings: Homo sapiens
[23] = cytotoxicity in HMLE control line with eGFP shRNA, dose response, counter-screen for HMLE_sh_ECad selective toxicity project, cell-based, HMLE_sh_eGFP, luminescence (AID 463074); assay type: functional, Homo sapiens;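 further: HMLE human mammary epithelial cells expressing control shRNA against eGFP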

## O=C(O)C1Nc2c(Cl)cc(Cl)cc2C2C=CCC12 (centres undefined)
[1]
  IC50: 12.9 µM (active)
[2]
  Ki: 65.6 µM (inactive)
[3]
  IC50: > 100 µM (not active)
[4]
  IC50: > 100 µM (not active)
Bcl-2-like protein 10
  EC50: 1.03 µM (active)
[5]
  IC50: > 100 µM (not active)
[6]
  IC50: 63.5 µM (active)
Cysteine protease ATG4B
  IC50: 2.58 µM (active)
Phospholipase A2
  IC50: 9.08 µM (active)
[7]
  IC50: 53 µM (active)

## O=C(C1=C(O)C(=O)N(c2nccs2)C1c1ccccc1)c1cc2ccccc2o1 (centres undefined)
[8]
  EC50: > 99 µM (inactive)
Keap1/Nrf2
  AC50: 1.15 µM (active)
[9]
  EC50: > 99 µM (inactive)

## COc1cc([N+](=O)[O-])ccc1NC(=O)COC(=O)c1ccc(NC(N)=O)cc1
[10]
  IC50: 14.6 µM (active)
[11]
  IC50: > 100 µM (inactive)
[12]
  IC50: 4.62 µM (active)
[13]
  IC50: 76.2 µM (active)
[14]
  EC50: 10.4 µM (active)
[15]
  IC50: > 66.6 µM (inactive)
[16]
  IC50: 10.2 µM (active)

## O=C(NCCc1ccc(F)cc1)c1cccc2c1C(=O)c1ccc(N3CCC(Cc4ccccc4)CC3)cc1S2(=O)=O
[17]
  AC50: 47.8 µM (active)

## Oc1c2nc3ccccc3c-2nc2n1CCS2
Candida albicans
  AC50: 17.1 µM (active)

## Cc1nc2ccccc2c(=O)n1/N=C/c1c(O)ccc2oc3c(c12)CCCC3
[18]
  EC50: 11.1 µM (active)
[19]
  CC50: 4.26 µM (active)
[20]
  EC50: 11.7 µM (active)
[21]
  EC50: 9.98 µM (active)
Estrogen receptor
  IC50: 29.2 µM (active)
[22]
  AC50: 30 µM (active)
[23]
  AC50: 32.8 µM (active)
